Test results taken from patent US20240423961A1, “1H-1,2,3-TRIAZOLE-4-CARBOXYLIC ACIDS FOR TREATMENT OF HYPEROXALURIA AND KIDNEY STONES” (CANTERO THERAPEUTICS, INC., priority 2021, published 2024).

Target: T1, glycolate oxidase (GO) (Homo sapiens, UniProt Q9UJM8)
T1 construct: healthy adult volunteers received single doses of Compound 1a; from tissue; host or cells: liver of healthy adult human volunteers (in vivo, Phase 1 study)
T1 sequence (Q9UJM8 1-370): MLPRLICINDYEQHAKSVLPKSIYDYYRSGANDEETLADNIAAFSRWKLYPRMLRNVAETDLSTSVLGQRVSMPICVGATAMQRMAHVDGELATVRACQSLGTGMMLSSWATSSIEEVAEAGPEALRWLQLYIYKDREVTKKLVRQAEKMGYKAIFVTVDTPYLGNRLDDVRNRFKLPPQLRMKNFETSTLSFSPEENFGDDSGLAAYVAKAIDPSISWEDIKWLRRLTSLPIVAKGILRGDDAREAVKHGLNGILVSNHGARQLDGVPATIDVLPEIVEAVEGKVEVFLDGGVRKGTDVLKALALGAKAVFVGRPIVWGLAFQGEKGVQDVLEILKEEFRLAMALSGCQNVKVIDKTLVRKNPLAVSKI
Assay: Phase 1 SAD/MAD study: plasma glycolate as measure of target engagement
Assay type: in vivo
Description: Pharmacodynamics: Acidified human K2-EDTA plasma samples were analyzed for oxalic acid and glycolic acid by a validated method over a range of 8.00 to 120 μM for oxalic acid and 5.00 to 625 μM for glycolic acid based on the analysis of 50 μL of sample. Human plasma containing oxalic acid, glycolic acid and internal standards, ^13C2-oxalic acid and D2-glycolic acid, was derivatized after protein precipitation then extracted using liquid-liquid extraction and analyzed by a Sciex API 4000 LC-MS-MS equipped with an HPLC column. The peak area of the m/z 224.1→152.1 oxalic acid product ion was measured against the peak area of the m/z 226.1→152.1 13C2-oxalic acid internal standard product ion. The peak area of the m/z 210.1→107.0 glycolic acid product ion was measured against the peak area of the m/z 212.1→107.0 D2-glycolic acid internal standard product ion. Quantitation was performed using a weighted 1/x2 linear least squares regression analysis generated from calibration standards prepared on the day of extraction.
Pharmacodynamics of Compound 1a: As a measure of target engagement, plasma glycolate levels were assessed in Part A and Part B. In Part A, healthy adult volunteers received single doses of Compound 1a at 40, 120, 360, 1,000, 2,000, and 3,000 mg with increases in plasma glycolate observed (FIG. 3A). At all doses, mean maximal plasma glycolate concentrations exceeded the upper limit of normal (ULN) of 14 μM, reaching a mean maximum concentration of >90 μM at doses above 1,000 mg, which was sustained for 24 hours. Median time to recovery (plasma glycolate less than or equal to ULN) after a single dose was less than 72 hours.
In Part B, healthy adult volunteers received multiple doses of Compound 1a at 75 mg qd, 125 mg q12 h, 500 mg q12 h, 500 mg qd, 750 mg qd, and 1000 mg qd. As with Part A, mean maximal plasma glycolate concentrations exceeded the ULN at all doses on day 1 to a range of 50 to 100 μM and further increased on day 7 to a range of 100 to 200 μM.

[1] = Part A, single doses above 1,000 mg

## O.O=C([O-])c1nn[nH]c1Oc1ccc(-c2ccc(C3CC(F)(F)C3)cc2)cc1.[Na+] [Compound 1a, sodium 5-((4′-(3,3-difluorocyclobutyl)-[1,1′-biphenyl]-4-yl)oxy)-1H-1,2,3-triazole-4-carboxylate monohydrate]
FIG. 3 legend
  time to inhibition of glycolate oxidase (GO) with increased plasma glycolate concentrations: ≤ 2 h
Part A, all single doses 40 to 3,000 mg
  mean maximal plasma glycolate concentrations (exceeded ULN): > 14 µM
[1]
  duration for which mean maximum plasma glycolate concentration was sustained: 24 h
  mean maximum plasma glycolate concentration: > 90 µM
Part B, all doses
  levels of plasma glycolate compared with lumasiran: significantly higher than those observed with lumasiran at 3 mg/kg or 6 mg/kg
After a single dose
  Median time to recovery (plasma glycolate less than or equal to ULN): less than 72 hours
Steady state, multiple doses
  plasma glycolate concentrations at steady state: comparable to those measured in case reports of individuals with germline HAO1 knockout
